Measurements as given in patent US20100061984A1, “COMPOSITIONS AND METHODS FOR MODULATION OF SUPPRESSOR T CELL ACTIVATION” (The Trustees of the University of Pennsylvania, priority 2006, published 2010).
Marks after values point to notes of the source that are not given here.

Columns and labels:
autoimmune models = assay: several autoimmune models (NOD, EAE, CIA); assay type: in vivo; conditions: MOG-induced EAE and CIA mouse models
Description: Studies of the rational inactivation of HDACs have been initiated with the intent of modifying FOXP3 acetylation. […] This treatment leads to increased FoxP3^+ suppressor cell levels and function. The models studied include the Nonobese Diabetic Mice (NOD) model, the myelin oligodendrocyte glycoprotein-induced experimental autoimmune encephalomyelitis (EAE) model, and the collagen-induced arthritis (CIA) mouse model.

[1] = system: collagen induced arthritis (CIA); assay: collagen induced arthritis (CIA) disease model of rheumatoid arthritis; assay type: in vivo, mice
Description: (§1) HDAC inhibitor treatment in collagen induced arthritis: HDAC inhibitor VPA was tested in the collagen induced arthritis (CIA) disease model of rheumatoid arthritis. CD4+ T cells as well as B cells are responsible for disease manifestation within the joints and CD25+ Treg play a protective role in disease development. After disease induction with type II collagen, mice were administered VPA (400 mg/kg) or PBS ip daily for 5 weeks. They were scored for severity of disease twice per week. […] Splenocytes from collagen induced arthritic mice that were treated with VPA (no disease evident) or PBS (disease evident) were analyzed for expression of CD4, CD25 and FOXP3 by flow cytometry. […] Additionally, the intracellular levels of FOXP3 protein were elevated in the VPA treated mice compared to PBS mice (FIG. 10). […] In proposed studies VPA treated CD25+ cells will be compared to PBS treated CD25+ cells for increased functional regulatory activity in vitro. HDAC inhibitor VPA is able to modify disease progression in the CIA model of rheumatoid arthritis.
(§2) Experiments were done to test the effect of valproic acid (VPA) on autoimmune disease models. Three models were used: a collagen induced arthritis (CIA) model; a non-obese diabetic mouse model; and an experimental autoimmune encephalomyelitis model. Collagen used in the CIA model was collagen from chicken sternal cartilage powder, Type II, from Sigma Cat#C9301. The peptide that was used in EAE experiments was Mouse MOG38-50 peptide ([…]-SEQ ID NO:1), which was synthesized using>F-moc solid phase methods and purified through HPLC by Invitrogen Life Technologies. For each model tested 7-10 mice were used per group. Results obtained with VPA were compared to those using the negative control phosphate buffered saline.

FOXP3+CD25+ cells = assay: flow cytometry of splenocytes from collagen induced arthritic mice for CD4, CD25 and FOXP3; assay type: in vivo
Description: Splenocytes from collagen induced arthritic mice treated with VPA (no disease evident) or PBS (disease evident) were stained for cell-surface CD25 and intracellular FOXP3. The CD25+FOXP3+cell subpopulation was gated, and FOXP3 level was analyzed.
as §1

Non-obese diabetic mouse = assay: non-obese diabetic mouse model; assay type: in vivo; conditions: Table 1, 7-10 mice per group, PBS 50%
Description: as §2

[2] = system: Experimental Autoimmune Encephalomyelitis; assay: experimental autoimmune encephalomyelitis model (MOG38-50 peptide); assay type: in vivo; conditions: Table 1, 7-10 mice per group, PBS 100%
Description: as §2

CC(/C=C/C(=O)NO)=C\[C@@H](C)C(=O)c1ccc(N(C)C)cc1 [TSA, Trichostatin A]
FoxP3+ suppressor cell levels and function (autoimmune models): increased
clinical effects in autoimmune models (autoimmune models): significant clinical effects

CCCC(CCC)C(=O)O [VPA, valproic acid]
Incidence of Disease ([1]; Collagen Induced Arthritis, Table 1, 7-10 mice per group, PBS 100%): 29%
mice showing any disease at the end of the 5 week study ([1]; VPA 400 mg/kg ip daily for 5 weeks after induction with type II collagen, PBS group 100%): 25%
disease severity compared to PBS treated ([1]; VPA 400 mg/kg ip daily for 5 weeks, scored twice per week): greatly reduced
intracellular levels of FOXP3 protein compared to PBS mice (FOXP3+CD25+ cells; CD25+FOXP3+ gated splenocytes from CIA mice (FIG. 10)): elevated
increase in the percentage of FOXP3+CD25+ cells, VPA treated versus PBS treated splenocytes (FOXP3+CD25+ cells; splenocytes from CIA mice, flow cytometry): 1.63 fold
Incidence of Disease (Non-obese diabetic mouse): 20%
Incidence of Disease [2]: 57%*
FoxP3+ suppressor cell levels and function (autoimmune models): increased
clinical effects in autoimmune models (autoimmune models): significant clinical effects
